Data from paper PMC6271825, “Synthesis and Cytotoxic Activity Evaluation of Novel Arylpiperazine Derivatives on Human Prostate Cancer Cell Lines” (Molecules, 2014).
Where a name gives a salt, the structure may show the parent alone.

SMILES	melting point
N#Cc1ccc(N2CCN(CCc3ccc(COc4ccc5c(c4)OCO5)cc3)CC2)c(F)c1 (as salt: HCl) [Compound 18, 4-(4-(2-(4-((Benzo[d][1,3]dioxol-5-yloxy)methyl)phenyl)ethyl)piperazin-1-yl)-3-fluorobenzonitrile]	182 to 183 °C
Clc1ccccc1N1CCN(CCc2ccc(COc3ccc4c(c3)OCO4)cc2)CC1 (as salt: HCl) [Compound 19, 1-(2-(4-((Benzo[d][1,3]dioxol-5-yloxy)methyl)phenyl)ethyl)-4-(2-chlorophenyl)piperazine]	176 to 177 °C
Clc1ccc(N2CCN(CCc3ccc(COc4ccc5c(c4)OCO5)cc3)CC2)cc1 (as salt: HCl) [Compound 20, 1-(2-(4-((Benzo[d][1,3]dioxol-5-yloxy)methyl)phenyl)ethyl)-4-(4-chlorophenyl)piperazine]	164 to 165 °C
Clc1cccc(N2CCN(CCc3ccc(COc4ccc5c(c4)OCO5)cc3)CC2)c1 (as salt: HCl) [Compound 21, 1-(2-(4-((Benzo[d][1,3]dioxol-5-yloxy)methyl)phenyl)ethyl)-4-(3-chlorophenyl)piperazine]	177 to 178 °C
Clc1cccc(N2CCN(CCc3ccc(COc4ccc5c(c4)OCO5)cc3)CC2)c1Cl (as salt: HCl) [Compound 22, 1-(2-(4-((Benzo[d][1,3]dioxol-5-yloxy)methyl)phenyl)ethyl)-4-(2,3-dichlorophenyl)piperazine]	177 to 178 °C
COc1ccc(Cl)cc1N1CCN(CCc2ccc(COc3ccc4c(c3)OCO4)cc2)CC1 (as salt: HCl) [Compound 23, 1-(2-(4-((Benzo[d][1,3]dioxol-5-yloxy)methyl)phenyl)ethyl)-4-(5-chloro-2-methoxyphenyl)piperazine]	177 to 178 °C
Brc1ccc(N2CCN(CCc3ccc(COc4ccc5c(c4)OCO5)cc3)CC2)cc1 (as salt: HCl) [Compound 24, 1-(2-(4-((Benzo[d][1,3]dioxol-5-yloxy)methyl)phenyl)ethyl)-4-(4-bromophenyl)piperazine]	173 to 174 °C
FC(F)(F)c1ccccc1N1CCN(CCc2ccc(COc3ccc4c(c3)OCO4)cc2)CC1 (as salt: HCl) [Compound 25, 1-(2-(4-((Benzo[d][1,3]dioxol-5-yloxy)methyl)phenyl)ethyl)-4-(2-(trifluoromethyl)phenyl)piperazine]	171 to 172 °C
FC(F)(F)c1ccc(N2CCN(CCc3ccc(COc4ccc5c(c4)OCO5)cc3)CC2)cc1 (as salt: HCl) [Compound 26, 1-(2-(4-((Benzo[d][1,3]dioxol-5-yloxy)methyl)phenyl)ethyl)-4-(4-(trifluoromethyl)phenyl)piperazine]	176 to 177 °C
CC(=O)c1ccc(N2CCN(CCc3ccc(COc4ccc5c(c4)OCO5)cc3)CC2)cc1 (as salt: HCl) [Compound 27, 1-(4-(4-(2-(4-((Benzo[d][1,3]dioxol-5-yloxy)methyl)phenyl)ethyl)piperazin-1-yl)phenyl)ethanone]	183 to 184 °C
c1ccc(C2CCN(CCc3ccc(COc4ccc5c(c4)OCO5)cc3)CC2)cc1 (as salt: HCl) [Compound 28, 1-(2-(4-((Benzo[d][1,3]dioxol-5-yloxy)methyl)phenyl)ethyl)-4-phenylpiperidine]	183 to 184 °C
OC1(c2ccccc2)CCN(CCc2ccc(COc3ccc4c(c3)OCO4)cc2)CC1 (as salt: HCl) [Compound 29, 1-(2-(4-((Benzo[d][1,3]dioxol-5-yloxy)methyl)phenyl)ethyl)-4-phenylpiperidin-4-ol]	194 to 195 °C
